Experimental data from US20230172933A1, “USE OF A COMPOUND OR COMPOSITION COMPRISING AN INHIBITOR OF NLRP1 INFLAMMASOME ACTIVATION FOR THE TREATMENT OF HUMAN AIRWAY INFLAMMATION” (Nanyang Technological University, priority 2020, published 2023).
Entries after “also recorded” stand apart in the source; their conditions may differ.

What was measured:
[1] = tested on: NLRP1 inflammasome in HRV16-infected NHBEs; experiment: HRV16-induced IL-1β and IL-18 secretion in NHBEs (ELISA); format: cell-based, human; settings: HRV16 MOI=5, 33° C., 48 hours, pre-treated: MLN4924 1 μM, Bortezomib 1 μM, MCC950 5 μM, Rupintrivir 10 nM
Protocol: (§1) (A) Expression levels of NLRP1 vs. NLRP3 (RNAseq FKPM) in NHBEs. n=21, independent cultures of pooled NHBEs from healthy donors. (B) Expression of NLRP1 vs. NLRP3 in healthy human nasal biopsy. Puncta: positive staining by RNAscope. Nuclei staining: hematoxylin. (C) Overview of cytokine profiling of by HRV16-infected and Talabostat-treated NHBEs. (D) Cells were inoculated with HRV16 at MOI=5 and cultured at 33° C. for 48 hours. Luminex array was performed on conditioned media after removing cell debris. n=3 independent infections and treatment. Cytokines/chemokines that were induced at least 5 fold (p<0.05, Student's t test, lognormal values) are represented by square boxes. […] NHBEs were pretreated with MCC950 (5 μM) or Rupintrivir (10 nM) before HRV16 inoculation or Talabostat (2 μM) treatment. […] (G) Overview of apical HRV infection 3D human bronchial epithelial cultures. (H) Alcian blue (AB)/periodic acid-Schiff (PAS) staining of HRV16-infected (MOI=3) and Talabostat (2 μM)-treated 3D human bronchial epithelial cultures. (1) IL-18 level in apical or basal media 48 hours post-infection or Talabostat treatment. **P<0.01, ***P<0.001, ****P<0.0001 (Two-way ANOVA). n=3 independent infected/treated cultures. (J) Secretion of cleaved IL-1β and IL-18 and ASC oligomerization in HRV16-infected primary NHBEs. Cells were inoculated with HRV16 (MOI=5) or treated with Talabostat (2 μM) for 48 hours at 33° C.
(§2) (A) Endogenous NLRP1, ASC and caspase-1 are indispensable for HRV16-induced IL-18 secretion in NHBEs. Cas9-control, NLRP1, ASC and CASP1 KO NHBEs were infected with HRV16 as before. Conditioned media were harvested 48 hours post-infection. (B) NLRP1 is genetically required for HRV16-induced IL-18 cleavage and ASC oligomerization. Cas9 control, NLRP1 and ASC KO NHBEs were infected with HRV16 as before. Cleaved IL-18 are marked with arrows. (C) Mutating the NLRP1 cleavage site abrogates HRV16-triggered IL-18 secretion in NHBEs. NLRP1 KO NHBEs were rescued with lentiviral constructs expressing FLAG-tagged NLRP1^WT or NLRP1^Q130A, which carried silent mutations at the PAM sites. The rescued cells were infected with HRV16 or treated with Talabostat. Conditioned media was analyzed by IL-18 ELISA. **P<0.01, ***P<0.001, n=3 replicates from one of two independent infections. (D) Q130A abrogates NLRP1 cleavage, IL-18 maturation and ASC oligomerization in NHBEs. NLRP1 KO or NLRP1^WT- or NLRP1^Q130A-rescued cells were infected with HRV16 or treated with Talabostat. Cells were harvested 48 hours post infection. Arrow: NLRP1 cleavage product in lane 8 HRV16. *: Non-specific NLRP1 degradation product that occurs right below the a.a. 131-1213 cleavage fragment. See also FIG. 3E, 5E, 5D. (E) MLN4924 and Bortezomib blocks HRV16-induced IL-18 secretion. NHBEs were pre-treated with MLN4924 (1 μM) or Bortezomib (1 μM) before HRV16 infection or Talabostat treatment. IL-18 levels were measured with ELISA. ****, p<0.0001 (Two-way ANOVA), n=3 independent infections/treatment. (F) MLN4924 and Bortezomib blocks HRV16-induced IL-1β secretion. […] Lysates from HRV16-infected NHBEs in FIGS. 9E-F were analyzed by Western blot 48 hours post HRV16 inoculation.
The following antibodies were used in this study: c-Myc (Santa Cruz Biotechnology #sc-40), HA tag (Santa Cruz Biotechnology, #sc-805), GAPDH (Santa Cruz Biotechnology, #sc-47724), ASC (Adipogen, #AL-177), CASP1 (Santa Cruz Biotechnology, #sc-622), IL1B (R&D systems, #AF-201), FLAG (SigmaAldrich, #F3165), GFP (Abcam, #ab290), NLRP1 (R&D systems, #AF6788), IL18 (Abcam ab207324) and VP2 (QED Bioscience, #18758). HRV16-3Cpro was detected by rabbit serum, a kind gift from Dr. Ann Palmenberg and Dr. James Gern (University of Wisconsin). Cytokine and chemokine measurements were carried out with human IL-1B ELISA kit (BD, #557953), human IL-18 ELISA kit (MBL Bioscience, #7620) and Immune Monitoring 65-Plex Human ProcartaPlex™ Panel (ThermoFisher EPX650-10065-901). […]

human NLRP1 inflammasome = experiment: HRV14-3Cpro-induced ASC-GFP speck formation in 293T-ASC-GFP-NLRP1-FLAG reporter cells; format: cell-based; settings: 293T-ASC-GFP-NLRP1-FLAG cells transfected with HRV14-3Cpro; MLN4924 1 μM, MG132 2.5 μM, Bortezomib 0.5 μM, phenylalanine 1 mM; 24 hours
NLRP1 = NLRP1 self-oligomerization (BN-PAGE) and cleavage fragment (SDS-PAGE/Western blot) in 293T-NLRP1-FLAG cells transfected with HRV14-3Cpro; format: cell-based, human
NLRP1 inflammasome = experiment: Talabostat-induced IL-1β secretion in N/TERT keratinocytes; format: cell-based, human; settings: ELISA of conditioned media
[2] = tested on: endogenous NLRP1 inflammasome; experiment: Endogenous NLRP1 inflammasome in doxycycline-induced Tet-ON HRV14-3Cpro N/TERT keratinocytes; format: cell-based, human
[3] = tested on: NLRP1 inflammasome in Talabostat-treated NHBEs; experiment: Talabostat-induced IL-1β and IL-18 secretion in NHBEs (ELISA); format: cell-based, human; settings: Talabostat 2 μM, pre-treated: MLN4924 1 μM, MCC950 5 μM, Rupintrivir 10 nM
Protocol: as §1
(A) Endogenous NLRP1, ASC and caspase-1 are indispensable for HRV16-induced IL-18 secretion in NHBEs. Cas9-control, NLRP1, ASC and CASP1 KO NHBEs were infected with HRV16 as before. Conditioned media were harvested 48 hours post-infection. (B) NLRP1 is genetically required for HRV16-induced IL-18 cleavage and ASC oligomerization. Cas9 control, NLRP1 and ASC KO NHBEs were infected with HRV16 as before. Cleaved IL-18 are marked with arrows. […] Conditioned media was analyzed by IL-18 ELISA. **P<0.01, ***P<0.001, n=3 replicates from one of two independent infections. […] IL-18 levels were measured with ELISA. ****, p<0.0001 (Two-way ANOVA), n=3 independent infections/treatment. […] Lysates from HRV16-infected NHBEs in FIGS. 9E-F were analyzed by Western blot 48 hours post HRV16 inoculation.
(§3) The following antibodies were used in this study: c-Myc (Santa Cruz Biotechnology #sc-40), HA tag (Santa Cruz Biotechnology, #sc-805), GAPDH (Santa Cruz Biotechnology, #sc-47724), ASC (Adipogen, #AL-177), CASP1 (Santa Cruz Biotechnology, #sc-622), IL1B (R&D systems, #AF-201), FLAG (SigmaAldrich, #F3165), GFP (Abcam, #ab290), NLRP1 (R&D systems, #AF6788), IL18 (Abcam ab207324) and VP2 (QED Bioscience, #18758). HRV16-3Cpro was detected by rabbit serum, a kind gift from Dr. Ann Palmenberg and Dr. James Gern (University of Wisconsin). […]

HRV16 = experiment: VP2 maturation in HRV16-infected NHBEs (Western blot); format: cell-based, HRV-A16; settings: 48 hours post inoculation, MLN4924 1 μM
Protocol: as §2, with “Arrow: NLRP1 cleavage product in lane 8 HRV16. *: Non-specific NLRP1 degradation product that occurs right below the a.a. 131-1213 cleavage fragment. See also FIG. 3E, 5E, 5D. (E) MLN4924 and Bortezomib blocks HRV16-induced IL-18 secretion. NHBEs were pre-treated with MLN4924 (1 μM) or Bortezomib (1 μM) before HRV16 infection or Talabostat treatment.” left out, “infections/treatment.” for “infections/treatment. (F) MLN4924 and Bortezomib blocks HRV16-induced IL-1β secretion.”, “inoculation. […]” for “inoculation.”

human NLRP1 = experiment: ASC-GFP speck formation in 293T-ASC-GFP-NLRP1-FLAG cells after Talabostat treatment; format: cell-based; settings: Talabostat 2 μM, 24 hrs, compared to vector-transfected cells
[4] = tested on: 3D human bronchial epithelial cultures; experiment: Talabostat treatment of 3D human bronchial epithelial cultures; format: cell-based; settings: Talabostat 2 μM
Protocol: as §1, with “Cells were inoculated with HRV16 (MOI=5) or treated with Talabostat (2 μM) for 48 hours at 33° C.” left out

NHBEs = experiment: Cytokine response of Talabostat-treated NHBEs (Luminex array, ELISA); format: cell-based, human
Protocol: (A) Expression levels of NLRP1 vs. NLRP3 (RNAseq FKPM) in NHBEs. n=21, independent cultures of pooled NHBEs from healthy donors. (B) Expression of NLRP1 vs. NLRP3 in healthy human nasal biopsy. Puncta: positive staining by RNAscope. Nuclei staining: hematoxylin. (C) Overview of cytokine profiling of by HRV16-infected and Talabostat-treated NHBEs. (D) Cells were inoculated with HRV16 at MOI=5 and cultured at 33° C. for 48 hours. Luminex array was performed on conditioned media after removing cell debris. n=3 independent infections and treatment. Cytokines/chemokines that were induced at least 5 fold (p<0.05, Student's t test, lognormal values) are represented by square boxes. […] NHBEs were pretreated with MCC950 (5 μM) or Rupintrivir (10 nM) before HRV16 inoculation or Talabostat (2 μM) treatment. […]
as §3

N/TERT cells = experiment: Mode of cell death of N/TERT cells by Annexin V and PI inclusion; format: cell-based, human; settings: Talabostat-treated N/TERT cells; marked by PI inclusion
Protocol: (A) Expression of Myc-tagged viral proteases in 293T-ASC-GFP-NLRP1-FLAG cells. Two exposure times were shown. Note that Myc-HRV16-3Cpro was lowly expressed but could activate ASC-GFP specks. (B) Representative wide-field fluorescent images of ASC-GFP specks, NLRP1-HA and Myc-tagged proteases. 293T-ASC-GFP cells were co-transfected with NLRP1-HA and Myc-tagged gZiPro, HRV14-3Cpro or HRV14-3Cpro^C146A and fixed 24 hours post transfection. (C) Validation of ASC KO in N/TERT cells. ASC KO #2 was chosen for further experiments. (E) N/TERT KO cells were transfected with the indicated 3Cpro variants and harvested 24 hours post transfection. Conditioned media was analyzed by IL-1β ELISA. **P<0.01 (Two-way ANOVA). n=3 independent transfections. (F) Modes of cell death of Talabostat-treated, or doxycycline-induced Tet-ON HRV14-3Cpro N/TERT cells assayed […] and PI inclusion. Data are representative of one of two independent experiments.
This provides a robust cellular system to determine if 3Cpros can activate the endogenous NLRP1 inflammasome. […] Live-cell imaging of human keratinocytes expressing GFP-tagged ASC further corroborated that HRV14-3Cpro could induce ASC-GFP speck formation (FIG. 1F). […]

NS(=O)(=O)OC[C@@H]1C[C@@H](n2ccc3c(N[C@H]4CCc5ccccc54)ncnc32)C[C@@H]1O [MLN4924, ((1S,2S,4R)-4-(4-(((S)-2,3-dihydro-1H-inden-1-yl)amino)-7H-pyrrolo[2,3-d]pyrimidin-7-yl)-2-hydroxycyclopentyl)methyl sulfamate]
HRV16-induced IL-1β secretion [1]: completely blocked; also recorded: blocks | HRV16-induced IL-18 secretion [1]: completely blocked; also recorded: blocks | HRV14-3Cpro-induced ASC-GFP speck formation (human NLRP1 inflammasome): blocked; also recorded: abrogate | stabilization of the post-cleavage NLRP1 fragment (a.a. 131-1213) (NLRP1; 293T-NLRP1-FLAG cells transfected with HRV14-3Cpro, Western blot): led to the stabilization | HRV14-3Cpro-induced NLRP1 self-oligomerization (NLRP1; 293T-NLRP1-FLAG cells, BN-PAGE, drugs for 24 hours, MG132 2.5 μM): similarly blocked; also recorded: inhibits | Talabostat-induced IL-1β secretion (NLRP1 inflammasome): much less dramatic effect | ASC oligomerization upon HRV14-3Cpro induction ([2]; doxycycline 24 hours): completely blocked | mature IL-1β secretion upon HRV14-3Cpro induction ([2]; doxycycline 24 hours, Western blot, ELISA): completely blocked | endogenous 3Cpro-induced NLRP1 inflammasome and pyroptosis ([2]; doxycycline with drug for 24 hours): inhibits | stabilization of the post-cleavage NLRP1 fragment ([2]; fragment below detection limit in untreated cells): stabilized | Talabostat-induced IL-1β secretion [3]: only had a modest effect | Talabostat-induced IL-18 secretion [3]: did not affect | accumulation of mature capsid protein VP2 (3Cpro-dependent VP2 maturation) (HRV16): did not affect; also recorded: does not affect

CC(C)[C@H](N)C(=O)N1CCC[C@H]1B(O)O [Talabostat]
percentage of cells forming ASC-GFP specks (human NLRP1): significant increase | epithelium morphology (Alcian blue/PAS staining) [4]: significant disruption of the epithelium, increased mucin production and goblet cell engorgement | IL-18 level in apical or basal media ([4]; 48 hours): led to IL-18 secretion in both the apical and basal media | IL-1β secretion (NHBEs; ELISA): significantly secreted | IL-18 induction (cytokine profiling) (NHBEs; Luminex array on conditioned media): most highly induced cytokine | mode of cell death (N/TERT cells): exclusively caused lytic cell death
